Activity calls are given as the source filed them. The calls are words filed in the database; no cut-off is given here.

In assay [1] the test system is Bacillus subtilis. Description: Antimicrobial activity against Bacillus subtilis at 30 ug/disk. It counts as functional. Conditions: read-out: IZ.
The test system of assay [2] is Trichophyton mentagrophytes. Description: Antimicrobial activity against Trichophyton mentagrophytes at 30 ug/disk. The format is functional. Conditions: read-out: IZ.
Another assay has as its system Candida albicans. Description: Antimicrobial activity against Candida albicans at 30 ug/disk. It counts as functional. Conditions: read-out: IZ.
A further assay relates to Escherichia coli. Description: Antimicrobial activity against Escherichia coli. The format is functional, organism-based.
Another assay relates to Amorphotheca resinae. The assay is described as follows: Antimicrobial activity against Cladosporium resinae at 30 ug/disk. It counts as functional. Particulars: read-out: IZ.
Assay [3] deals with Bacillus subtilis. Description: Antimicrobial activity against Bacillus subtilis at 30 ug/5 mm disk. It counts as functional.

In the case of `Oc1c(Cl)ccc(CCc2ccccc2)c1Cl`, the zone of inhibition at 30 µg/disc in the assay with Bacillus subtilis [1] turned out to be 2 mm; in assay [2], 12 mm; with Candida albicans, 2 mm; with Amorphotheca resinae, 2 mm. Besides, in the assay with Escherichia coli, the outcome was inactive.

As to `Oc1cccc(CCc2ccccc2)c1Cl`, the zone of inhibition at 30 µg/disc was determined as 2 mm with Bacillus subtilis [1], 3 mm in assay [2], 2 mm in the assay on Candida albicans and 0 mm with Amorphotheca resinae. In the assay on Escherichia coli, the result was inactive.

With `Oc1c(Cl)cc(Cl)c(CCc2ccccc2)c1Cl`, the zone of inhibition at 30 µg/disc was 7 mm in assay [2], 2 mm in the assay on Candida albicans and 1 mm in the assay on Amorphotheca resinae. For the same compound, in the assay with Escherichia coli, the outcome was inactive. Further, in the assay with Bacillus subtilis [3], the “inhibition zone (IZ)” value is listed as 2 mm.

(Values after ChEMBL document CHEMBL1151189, “Antimicrobial chlorinated bibenzyls from the liverwort Riccardia marginata” (2004).)
